Assay: xn = mol fraction of the nth substance listed
Conditions: 101 kPa

CCCC[n+]1ccn(C)c1.[Cl-] + CC#N
Conditions | electrical conductivity [S/m] | viscosity [mPa·s]
293.15 K, x2 = 0.5028 | – | 111
293.15 K, x2 = 0.5548 | – | 60.5
293.15 K, x2 = 0.6007 | – | 38.5
293.15 K, x2 = 0.7003 | – | 11.9
293.15 K, x2 = 0.8 | – | 3.9
293.15 K, x2 = 0.9002 | – | 1.17
293.15 K, x2 = 0.9499 | – | 0.69
298.15 K, x2 = 0.502 | 0.29 | 76
298.15 K, x2 = 0.5483 | 0.4 | 53.6
298.15 K, x2 = 0.6038 | 0.578 | 28.4
298.15 K, x2 = 0.7021 | 1.03 | 10
298.15 K, x2 = 0.9002 | 1.9 | 1.12
298.15 K, x2 = 0.9499 | 1.7 | 0.63
298.15 K, x2 = 0.975 | 1.3 | 0.46
303.15 K, x2 = 0.5065 | – | 63.1
303.15 K, x2 = 0.5524 | – | 40.2
303.15 K, x2 = 0.6025 | – | 25.5
303.15 K, x2 = 0.7003 | – | 9.3
303.15 K, x2 = 0.8007 | – | 3.4
303.15 K, x2 = 0.9002 | – | 1.06
303.15 K, x2 = 0.9499 | – | 0.57
308.15 K, x2 = 0.5028 | – | 55.4
308.15 K, x2 = 0.5548 | – | 33.3
308.15 K, x2 = 0.6007 | – | 22
308.15 K, x2 = 0.7003 | – | 8.5
308.15 K, x2 = 0.8 | – | 3.04
308.15 K, x2 = 0.9002 | – | 1.02
308.15 K, x2 = 0.9499 | – | 0.53

CC#N + CCCC[n+]1ccn(C)c1.[Cl-]
x1 = 1
Conditions | viscosity [mPa·s]
293.15 K | 0.36
298.15 K | 0.35
303.15 K | 0.32

CCO + CCCC[n+]1ccn(C)c1.[Cl-]
x1 = 1
Conditions | viscosity [mPa·s]
293.15 K | 1.19
298.15 K | 1.08
308.15 K | 0.89

CN(C)C=O + CCCC[n+]1ccn(C)c1.[Cl-]
x1 = 1
Conditions | viscosity [mPa·s]
293.15 K | 0.86
298.15 K | 0.8
303.15 K | 0.78
308.15 K | 0.73

CO + CCCC[n+]1ccn(C)c1.[Cl-]
x1 = 1
Conditions | viscosity [mPa·s]
293.15 K | 0.61
298.15 K | 0.55
303.15 K | 0.51

O + CCCC[n+]1ccn(C)c1.[Cl-]
x1 = 1
Conditions | viscosity [mPa·s]
293.15 K | 1.01
298.15 K | 0.89
303.15 K | 0.8
308.15 K | 0.72

CCCC[n+]1ccn(C)c1.[Cl-] + CCO
Conditions | electrical conductivity, 298.15 K [S/m] | viscosity, 293.15 K [mPa·s] | viscosity, 298.15 K [mPa·s] | viscosity, 303.15 K [mPa·s] | viscosity, 308.15 K [mPa·s]
x2 = 0.4991 | 0.326 | 75 | 61.4 | – | 38.3
x2 = 0.5533 | 0.483 | 47.9 | 37.5 | 31.1 | 25.6
x2 = 0.6011 | 0.648 | 30.6 | 23.8 | – | 17
x2 = 0.7003 | – | 12.1 | – | 9.2 | 8.2
x2 = 0.8002 | – | 5.23 | – | 4.25 | 3.84
x2 = 0.9 | 1.38 | 2.46 | 2.24 | 2.06 | 1.92
x2 = 0.9501 | 0.927 | – | 1.62 | – | 1.35
x2 = 0.975 | 0.52 | – | 1.29 | – | –

CCCC[n+]1ccn(C)c1.[Cl-] + CN(C)C=O
Conditions | electrical conductivity [S/m] | viscosity [mPa·s]
293.15 K, x2 = 0.5025 | – | 77
293.15 K, x2 = 0.5565 | – | 49.1
293.15 K, x2 = 0.6003 | – | 33.9
293.15 K, x2 = 0.6996 | – | 16.9
293.15 K, x2 = 0.8014 | – | 5.1
293.15 K, x2 = 0.95 | – | 1.32
298.15 K, x2 = 0.501 | 0.218 | 64
298.15 K, x2 = 0.6134 | 0.439 | 24
298.15 K, x2 = 0.6994 | 0.592 | 11.4
298.15 K, x2 = 0.8017 | 0.857 | 4.44
298.15 K, x2 = 0.9 | 0.922 | 1.88
298.15 K, x2 = 0.9502 | 0.766 | 1.21
303.15 K, x2 = 0.552 | – | 34.5
303.15 K, x2 = 0.7005 | – | 9.5
303.15 K, x2 = 0.9 | – | 1.73
308.15 K, x2 = 0.5007 | – | 39.9
308.15 K, x2 = 0.5564 | – | 25.5
308.15 K, x2 = 0.6001 | – | 17.5
308.15 K, x2 = 0.7 | – | 7.8
308.15 K, x2 = 0.95 | – | 1.04

CCCC[n+]1ccn(C)c1.[Cl-] + CO
Conditions | electrical conductivity [S/m] | viscosity [mPa·s]
293.15 K, x2 = 0.6026 | – | 23.2
293.15 K, x2 = 0.7002 | – | 8.4
293.15 K, x2 = 0.8008 | – | 3.41
293.15 K, x2 = 0.8999 | – | 1.63
293.15 K, x2 = 0.95 | – | 0.95
298.15 K, x2 = 0.5213 | 0.632 | 37.6
298.15 K, x2 = 0.5458 | 0.777 | 32.5
298.15 K, x2 = 0.5925 | 1.08 | 20.4
298.15 K, x2 = 0.7996 | 3.46 | 3.25
298.15 K, x2 = 0.9007 | 4.08 | 1.38
298.15 K, x2 = 0.95 | 3.32 | 0.88
298.15 K, x2 = 0.975 | 2.24 | 0.68
303.15 K, x2 = 0.5173 | – | 36.4
303.15 K, x2 = 0.6044 | – | 16
303.15 K, x2 = 0.7993 | – | 2.86
303.15 K, x2 = 0.8999 | – | 1.25
303.15 K, x2 = 0.95 | – | 0.85
308.15 K, x2 = 0.5001 | – | 34.5
308.15 K, x2 = 0.5458 | – | 23.7
308.15 K, x2 = 0.6026 | – | 14.9
308.15 K, x2 = 0.7001 | – | 6.6
308.15 K, x2 = 0.8008 | – | 2.76

CCCC[n+]1ccn(C)c1.[Cl-] + O
Conditions | electrical conductivity, 298.15 K [S/m] | viscosity, 293.15 K [mPa·s] | viscosity, 298.15 K [mPa·s] | viscosity, 303.15 K [mPa·s] | viscosity, 308.15 K [mPa·s]
x2 = 0.4982 | 0.32 | – | 163 | 118 | –
x2 = 0.5535 | 0.502 | 141 | 105 | 83 | 61.6
x2 = 0.6132 | 0.844 | 86 | 64.5 | 50.4 | 38.7
x2 = 0.7033 | 1.54 | 39.4 | 30.4 | 24.5 | 20
x2 = 0.8034 | – | 15.5 | – | 10.5 | 8.69
x2 = 0.8999 | 5.31 | 5.3 | 4.38 | – | 3.3
x2 = 0.9502 | 5.98 | – | 2.22 | 1.94 | 1.74
x2 = 0.975 | 4.98 | – | 1.52 | – | –
